Measurements published in patent US20260022246A1, “COLORING AGENT COMPOSITION, FILM, OPTICAL FILTER, AND NEAR INFRARED ABSORBING COMPOUND” (FUJIFILM Corporation, priority 2023, published 2026).

Assays:
Format in all cases: physicochemical
[1] = Evaluation of absorption spectrum (maximal absorption wavelength in chloroform solution); details: for λmax (maximal absorption wavelength): chloroform solution, 3.0×10^−5 mol/L, 1 mm quartz cell; for Near infrared absorbing property: grade of λmax in chloroform solution
Method: The specific compound is diluted with chloroform to a concentration of […], and an absorbance of the obtained sample solution is measured with a spectrophotometer (UV-3600 Plus, manufactured by Shimadzu Corporation) using a 1 mm quartz cell. A maximal absorption wavelength (Amax) is measured from an absorption spectrum of the sample solution.
For each of Exemplary Compounds shown in Tables 1 and 2, a sample solution was prepared by diluting the compound with chloroform to a concentration of 3.0×10^−5 mol/L, and near infrared absorbability was evaluated.
For each sample solution, an absorbance was measured in a 1 mm quartz cell using a spectrophotometer (UV-3600 Plus, manufactured by Shimadzu Corporation).
A maximal absorption wavelength (Amax) was measured from the absorption spectrum of each sample solution. The results are shown in Tables 1 and 2, and the wavelength of Amax was evaluated according to the following standard.
• A: Amax was 1,150 nm or more. • B: Amax was less than 1,150 nm.

[2] = Evaluation of kneading: transmittance at 1,150 nm of melt-kneaded resin film; details: kneaded with resin under the thermal conditions
Method: A resin composition, which was a kneaded material of the specific compound or the comparative compound and a resin, was prepared, and the following kneading evaluation was performed.
The specific compounds and comparative compounds shown in Table 3 below were weighed in the contents shown in Table 3, and a sample obtained by shaking and mixing 12.0 g of the resin shown in Table 3 was prepared. A polycarbonate resin (indicated as Polycarbonate in Table 3), a polystyrene resin, and an acrylic resin were used as the resin. In Table 3, the polycarbonate resin is indicated as Polycarbonate, the polystyrene resin is indicated as Polystyrene, and the acrylic resin is indicated as Acrylic.
The obtained sample was put into a supply port of a biaxial kneader (Labo Plastomill, manufactured by Toyo Seiki Seisaku-sho, Ltd.) and subjected to melt-kneading to obtain a resin composition as a kneaded material. The obtained resin composition was pressed using a heat press machine to obtain a resin film having a thickness of 0.15 mm.
In a case where a polycarbonate resin (SD PORYCA (registered trademark) 301-10, manufactured by Sumika Polycarbonate Co., Ltd.) was used as the resin, the melt-kneading temperature was set to 260° C. and the hot press temperature was set to 230° C.
In a case where a polystyrene resin (manufactured by Sigma-Aldrich Co. LLC) was used as the resin, the melt-kneading temperature was set to 200° C. and the hot press temperature was set to 180° C.
In a case where an acrylic resin (G1000, manufactured by Kuraray Co., Ltd.) was used as the resin, the melt-kneading temperature was set to 180° C. and the hot press temperature was set to 160° C.
A transmittance of the obtained resin film at a wavelength of 1,150 nm was measured with a spectrophotometer, and the measured value was evaluated according to the following standard. In Table 3, it is described in “Evaluation of transmittance at wavelength of 1150 nm”. As the transmittance is lower, the near infrared blocking property is better. […]

[3] = Evaluation of solubility in methyl ethyl ketone (MEK); parameters: key to Solubility in solvent: A: 1 g or more of the compound was stably dissolved in 300 g of MEK; B: 1 g was not dissolved in 300 g of MEK; X: decomposition was observed by measuring the absorption spectrum after the dissolution; details: for Solubility in solvent: stirred at room temperature for 30 minutes
Method: For each of Exemplary Compounds shown in Tables 1 and 2, a predetermined amount of the compound was added to a solvent of methyl ethyl ketone (MEK), and solubility was evaluated according to the following standard by stirring the mixture at room temperature for 30 minutes.
• A: 1 g or more of the compound was stably dissolved in 300 g of MEK. • B: 1 g was not dissolved in 300 g of MEK. • X: decomposition was observed by measuring the absorption spectrum after the dissolution.

[4] = Evaluation of heat stability of polystyrene resin film (hot plate 180° C., 5 minutes); details: for Heat stability of resin composition: polystyrene resin film on glass, hot plate 180° C. for 5 minutes, absorbance reduction rate at λmax
Method: 30 mg of each of Exemplary Compounds and the comparative compounds described in the tables was dissolved in 8.9 g of methyl ethyl ketone and 1.1 g of a polystyrene resin (manufactured by Sigma-Aldrich Co. LLC) to prepare a resin composition.
The obtained resin composition was spin-coated on a glass substrate to form a coating film, and the obtained coating film was dried at 60° C. for 2 minutes to produce a resin film. […]
• A: absorbance reduction rate of Amax was less than 5%. • B: absorbance reduction rate of Amax was 5% or more and less than 10%. • C: absorbance reduction rate of Amax was 10% or more and less than 50%. • D: absorbance reduction rate of Amax was 50% or more. • X: solubility was insufficient, so that the film cannot be produced, which was not evaluable.

SMILES	λmax (maximal absorption wavelength) [1] [nm]	Near infrared absorbing property [1]	heat stability (in words, kneading evaluation) [2]	stability after dissolving in a solvent (measurement of the absorption spectrum) [3]	Solubility in solvent [3]	Heat stability of resin composition [4]	solubility in a solvent (in words) [3]	heat stability of the resin composition (in words) ([4]; polystyrene resin film)	absorbance at the maximal absorption wavelength on heating ([4]; resin film, heating at 130° C. as printed)
CCCCN(CCCC)c1ccc(N(c2ccc(N(CCCC)CCCC)cc2)c2ccc([N+](=C3C=CC(=[N+](c4ccc(N(c5ccc(N(CCCC)CCCC)cc5)c5ccc(N(CCCC)CCCC)cc5)cc4)c4ccc(N(c5ccc(N(CCCC)CCCC)cc5)c5ccc(N(CCCC)CCCC)cc5)cc4)C=C3)c3ccc(N(c4ccc(N(CCCC)CCCC)cc4)c4ccc(N(CCCC)CCCC)cc4)cc3)cc2)cc1.[F][Sb-]([F])([F])([F])([F])[F].[F][Sb-]([F])([F])([F])([F])[F] [Comparative compound 3, reference compound]	1051	B (Amax was less than 1,150 nm)	low	decomposed	X	D (absorbance reduction rate of Amax was 50% or more)	–	–	–
CCCCN(CCCC)c1ccc([N+](=C2C=CC(=[N+](c3ccc(N(CCCC)CCCC)cc3)c3ccc(N(CCCC)CCCC)cc3)C=C2)c2ccc(N(CCCC)CCCC)cc2)cc1.[F][Sb-]([F])([F])([F])([F])[F].[F][Sb-]([F])([F])([F])([F])[F] [Comparative compound 4, reference compound]	1100	B (Amax was less than 1,150 nm)	low	–	A (1 g or more of the compound was stably dissolved in 300 g of MEK)	D (absorbance reduction rate of Amax was 50% or more)	favorable	low	significantly reduced
Cc1ccc(N(c2ccc(C)cc2)c2ccc([N+](=C3C=CC(=[N+](c4ccc(N(c5ccc(C)cc5)c5ccc(C)cc5)cc4)c4ccc(N(c5ccc(C)cc5)c5ccc(C)cc5)cc4)C=C3)c3ccc(N(c4ccc(C)cc4)c4ccc(C)cc4)cc3)cc2)cc1 [A-1]	–	A (Amax was 1,150 nm or more)	–	–	A (1 g or more of the compound was stably dissolved in 300 g of MEK)	A (absorbance reduction rate of Amax was less than 5%)	–	–	–
COc1ccc(N(c2ccc(OC)cc2)c2ccc([N+](=C3C=CC(=[N+](c4ccc(N(c5ccc(OC)cc5)c5ccc(OC)cc5)cc4)c4ccc(N(c5ccc(OC)cc5)c5ccc(OC)cc5)cc4)C=C3)c3ccc(N(c4ccc(OC)cc4)c4ccc(OC)cc4)cc3)cc2)cc1.[O-][Cl+3]([O-])([O-])[O-].[O-][Cl+3]([O-])([O-])[O-] [A-6]	1248	A (Amax was 1,150 nm or more)	–	–	A (1 g or more of the compound was stably dissolved in 300 g of MEK)	A (absorbance reduction rate of Amax was less than 5%)	–	–	–
Cc1ccc(N(c2ccc(C)cc2)c2ccc([N+](=C3C=CC(=[N+](c4ccc(N(c5ccc(C)cc5)c5ccc(C)cc5)cc4)c4ccc(N(c5ccc(C)cc5)c5ccc(C)cc5)cc4)C=C3)c3ccc(N(c4ccc(C)cc4)c4ccc(C)cc4)cc3)cc2)cc1 [A-28]	1209	A (Amax was 1,150 nm or more)	–	–	A (1 g or more of the compound was stably dissolved in 300 g of MEK)	A (absorbance reduction rate of Amax was less than 5%)	–	–	–
Cc1ccc(N(c2ccc(C)cc2)c2ccc([N+](=C3C=CC(=[N+](c4ccc(N(c5ccc(C)cc5)c5ccc(C)cc5)cc4)c4ccc(N(c5ccc(C)cc5)c5ccc(C)cc5)cc4)C=C3)c3ccc(N(c4ccc(C)cc4)c4ccc(C)cc4)cc3)cc2)cc1.F[P-](F)(F)(F)(F)F.F[P-](F)(F)(F)(F)F [A-30]	1209	A (Amax was 1,150 nm or more)	–	–	A (1 g or more of the compound was stably dissolved in 300 g of MEK)	A (absorbance reduction rate of Amax was less than 5%)	–	–	–
Cc1ccc(N(c2ccc(C)cc2)c2ccc([N+](=C3C=CC(=[N+](c4ccc(N(c5ccc(C)cc5)c5ccc(C)cc5)cc4)c4ccc(N(c5ccc(C)cc5)c5ccc(C)cc5)cc4)C=C3)c3ccc(N(c4ccc(C)cc4)c4ccc(C)cc4)cc3)cc2)cc1 [Comparative compound 2, reference compound]	1250	A (Amax was 1,150 nm or more)	low	decomposed	X	D (absorbance reduction rate of Amax was 50% or more)	–	–	–
